Experimental findings from patent US8299048B2, “Hexahydrocyclopentyl[f]indazole sulfonamides and derivatives thereof as selective glucocorticoid receptor modulators” (Merck Sharp & Dohme Corp., priority 2008, dated 2012) are described below.

The term Ki denotes a dissociation constant, usually derived from enzyme kinetics or from competition with a known ligand. Low readings indicate tighter binding, high ones weaker binding.

In the test the target is T1, glucocorticoid receptor (Homo sapiens, UniProt P04150).
T1 construct: endogenous in cells
T1 sequence (P04150 1-777): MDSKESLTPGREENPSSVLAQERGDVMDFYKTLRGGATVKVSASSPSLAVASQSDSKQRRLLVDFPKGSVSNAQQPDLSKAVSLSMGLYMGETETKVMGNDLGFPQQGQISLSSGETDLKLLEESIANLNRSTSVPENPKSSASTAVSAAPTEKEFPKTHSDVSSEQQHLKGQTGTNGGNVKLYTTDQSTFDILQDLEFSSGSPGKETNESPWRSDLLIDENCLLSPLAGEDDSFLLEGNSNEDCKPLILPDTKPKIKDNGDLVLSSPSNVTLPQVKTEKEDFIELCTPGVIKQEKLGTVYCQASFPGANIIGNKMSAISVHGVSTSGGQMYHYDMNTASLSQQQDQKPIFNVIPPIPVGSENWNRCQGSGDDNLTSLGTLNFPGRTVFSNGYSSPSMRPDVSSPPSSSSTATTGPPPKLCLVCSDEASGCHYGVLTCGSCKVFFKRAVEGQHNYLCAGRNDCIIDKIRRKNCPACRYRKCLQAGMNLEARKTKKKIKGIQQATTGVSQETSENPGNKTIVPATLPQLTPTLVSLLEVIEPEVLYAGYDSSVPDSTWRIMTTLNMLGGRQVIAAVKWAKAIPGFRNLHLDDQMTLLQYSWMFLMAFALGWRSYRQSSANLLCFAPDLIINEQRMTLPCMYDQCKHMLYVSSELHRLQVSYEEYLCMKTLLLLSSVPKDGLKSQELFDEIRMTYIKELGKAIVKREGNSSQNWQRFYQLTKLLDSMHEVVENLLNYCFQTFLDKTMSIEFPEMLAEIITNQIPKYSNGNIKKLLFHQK
The experiment in a line: Ligand binding assay (GR BIND). Put shortly: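 Cytosol from freeze–thawed cells in TEGM (pH 7.2, 10 mM molybdate) was incubated overnight at 4 °C with compound and [3H]-dexamethasone trace (added as 6 nM solution), 2% EtOH final. Bound ligand was captured on hydroxylapatite, filtered, washed and scintillation counted. Values were calculated with dexamethasone as reference.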

`Cn1cnc(S(=O)(=O)N(CC#N)C[C@H]2CCC3=Cc4c(cnn4-c4ccc(F)cc4)C[C@@]32C)c1` [Example 37, N-(cyanomethyl)-N-{[(4αR,5S)-1-(4-fluorophenyl}-4α-methyl-1,4,4α,5,6,7-hexahydrocyclopenta[f]indazol-5-yl]methyl}-1-methyl-1H-imidazole-4-sulfonamide]: the Ki was found to be 10.7 nM.
In turn, `C[C@]12Cc3cnn(-c4ccc(F)cc4)c3C=C1CC[C@@H]2CN(CC#N)S(=O)(=O)c1ccc(Oc2cccc(Cl)c2C#N)cc1` [Example 38, 4-(3-chloro-2-cyanophenoxy)-N-(cyanomethyl)-N-{[(4αR,5S)-1-(4-fluorophenyl)-4α-methyl-1,4,4α,5,6,7-hexahydrocyclopenta[f]indazol-5-yl]methyl}benzenesulfonamide] registered a Ki of 6.4 nM.
The value for `CN1CCOc2cc(S(=O)(=O)N(CC#N)C[C@H]3CCC4=Cc5c(cnn5-c5ccc(F)cc5)C[C@@]43C)ccc21` [Example 39, N-(cyanomethyl)-N-{[(4αR,5S)-1-(4-fluorophenyl)-4α-methyl-1,4,4α,5,6,7-hexahydrocyclopenta[f]indazol-5-yl]methyl}-4-methyl-3,4-dihydro-2H-1,4-benzoxazine-7-sulfonamide] was 8.1 nM; that for `C[C@]12Cc3cnn(-c4ccc(F)cc4)c3C=C1CC[C@@H]2CN(CC#N)S(=O)(=O)c1cccc2ccccc12` [Example 40, N-(cyanomethyl)-N-{[(4αR,5S)-1-(4-fluorophenyl)-4α-methyl-1,4,4α,5,6,7-hexahydrocyclopenta[f]indazol-5-yl]methyl}naphthalene-1-sulfonamide] was 10.5 nM; that for `C[C@]12Cc3cnn(-c4ccc(F)cc4)c3C=C1CC[C@@H]2CN(CC#N)S(=O)(=O)c1cc(OCC(F)(F)F)ccc1OCC(F)(F)F` [Example 41, N-(cyanomethyl)-N-{[(4αR,5S)-1-(4-fluorophenyl)-4α-methyl-1,4,4α,5,6,7-hexahydrocyclopenta[f]indazol-5-yl]methyl}-2,5-bis(2,2,2-trifluoroethoxy)benzenesulfonamide] was 5.9 nM.
To `C[C@]12Cc3cnn(-c4ccc(F)cc4)c3C=C1CC[C@@H]2CN(CC#N)S(=O)(=O)c1ccc(-c2ccccc2)cc1` [Example 42, N-(cyanomethyl)-N-{[(4αR,5S)-1-(4-fluorophenyl)-4α-methyl-1,4,4α,5,6,7-hexahydrocyclopenta[f]indazol-5-yl]methyl}biphenyl-4-sulfonamide] belongs 5.9 nM; to `C[C@]12Cc3cnn(-c4ccc(F)cc4)c3C=C1CC[C@@H]2CN(CC#N)S(=O)(=O)c1ccccc1F` [Example 43, N-(cyanomethyl)-2-fluoro-N-{[(4αR,5S)-1-(4-fluorophenyl)-4α-methyl-1,4,4α,5,6,7-hexahydrocyclopenta[f]indazol-5-yl]methyl}benzenesulfonamide], 2.2 nM; to `C[C@]12Cc3cnn(-c4ccc(F)cc4)c3C=C1CC[C@@H]2CN(CC#N)S(=O)(=O)c1cc(F)cc(F)c1` [Example 44, N-(cyanomethyl)-3,5-difluoro-N-{[(4αR,5S)-1-(4-fluorophenyl)-4α-methyl-1,4,4α,5,6,7-hexahydrocyclopenta[f]indazol-5-yl]methyl}benzenesulfonamide], 1.6 nM.
The compound `C[C@]12Cc3cnn(-c4ccc(F)cc4)c3C=C1CC[C@@H]2CN(CC#N)S(=O)(=O)c1ccc(Oc2ccccn2)cc1` [Example 45, N-(cyanomethyl)-N-{[(4αR,5S)-1-(4-fluorophenyl)-4α-methyl-1,4,4α,5,6,7-hexahydrocyclopenta[f]indazol-5-yl]methyl}-4-(pyridin-2-yloxy)benzenesulfonamide] displayed a Ki of 2.4 nM.
To `C[C@]12Cc3cnn(-c4ccc(F)cc4)c3C=C1CC[C@@H]2CN(CC#N)S(=O)(=O)c1ccc(F)cc1` [Example 46, N-(cyanomethyl)-4-fluoro-N-{[(4αR,5S)-1-(4-fluorophenyl)-4α-methyl-1,4,4α,5,6,7-hexahydrocyclopenta[f]indazol-5-yl]methyl}benzenesulfonamide] belongs 0.7 nM; to `C[C@]12Cc3cnn(-c4ccc(F)cc4)c3C=C1CC[C@@H]2CN(CC#N)S(=O)(=O)c1cc(F)c(F)cc1F` [Example 47, N-(cyanomethyl)-2,4,5-trifluoro-N-{[(4αR,5S)-1-(4-fluorophenyl)-4α-methyl-1,4,4α,5,6,7-hexahydrocyclopenta[f]indazol-5-yl]methyl}benzenesulfonamide], 0.7 nM; to `C[C@]12Cc3cnn(-c4ccc(F)cc4)c3C=C1CC[C@@H]2CN(CC#N)S(=O)(=O)Cc1ccccc1` [Example 48, N-(cyanomethyl)-N-{[(4αR,5S)-1-(4-fluorophenyl)-4α-methyl-1,4,4α,5,6,7-hexahydrocyclopenta[f]indazol-5-yl]methyl}-1-phenylmethanesulfonamide], 0.9 nM.
On to `Cc1ccccc1S(=O)(=O)N(CC#N)C[C@H]1CCC2=Cc3c(cnn3-c3ccc(F)cc3)C[C@@]21C` [Example 49, N-(cyanomethyl)-N-{[(4αR,5S)-1-(4-fluorophenyl)-4α-methyl-1,4,4α,5,6,7-hexahydrocyclopenta[f]indazol-5-yl]methyl}-2-methylbenzenesulfonamide], for which the Ki amounted to 1.8 nM.
The value for `C[C@]12Cc3cnn(-c4ccc(F)cc4)c3C=C1CC[C@@H]2CN(CC#N)S(=O)(=O)c1ccccc1Cl` [Example 50, 2-chloro-N-(cyanomethyl)-N-{[(4αR,5S)-1-(4-fluorophenyl)-4α-methyl-1,4,4α,5,6,7-hexahydrocyclopenta[f]indazol-5-yl]methyl}benzenesulfonamide] was 6.5 nM; that for `C[C@]12Cc3cnn(-c4ccc(F)cc4)c3C=C1CC[C@@H]2CN(CC#N)S(=O)(=O)c1ccc(F)cc1F` [Example 51, N-(cyanomethyl)-2,4-difluoro-N-{[(4αR,5S)-1-(4-fluorophenyl)-4α-methyl-1,4,4α,5,6,7-hexahydrocyclopenta[f]indazol-5-yl]methyl}benzenesulfonamide] was 2.5 nM; that for `Cc1nn(C)c(Cl)c1S(=O)(=O)N(CC#N)C[C@H]1CCC2=Cc3c(cnn3-c3ccc(F)cc3)C[C@@]21C` [Example 52, 5-chloro-N-(cyanomethyl)-N-{[(4αR,5S)-1-(4-fluorophenyl)-4α-methyl-1,4,4α,5,6,7-hexahydrocyclopenta[f]indazol-5-yl]methyl}-1,3-dimethyl-1H-pyrazole-4-sulfonamide] was 1.9 nM.
To `C[C@]12Cc3cnn(-c4ccc(F)cc4)c3C=C1CC[C@@H]2CN(CC#N)S(=O)(=O)c1ccccc1-c1ccccc1` [Example 53, N-(cyanomethyl)-N-{[(4αR,5S)-1-(4-fluorophenyl)-4α-methyl-1,4,4α,5,6,7-hexahydrocyclopenta[f]indazol-5-yl]methyl}biphenyl-2-sulfonamide] belongs 3.7 nM; to `C[C@]12Cc3cnn(-c4ccc(F)cc4)c3C=C1CC[C@@H]2CN(CC#N)S(=O)(=O)c1ccccc1C(F)(F)F` [Example 54, N-(cyanomethyl)-N-{[(4αR,5S)-1-(4-fluorophenyl)-4α-methyl-1,4,4α,5,6,7-hexahydrocyclopenta[f]indazol-5-yl]methyl}-2-(trifluoromethyl)benzenesulfonamide], 8.5 nM; to `C[C@]12Cc3cnn(-c4ccc(F)cc4)c3C=C1CC[C@@H]2CN(CC#N)S(=O)(=O)c1ccccc1C#N` [Example 55], 2.7 nM.
